Columns and labels:
[1] = target: T1, HIV-RT (purified RT from HIV-1, expressed in E. coli) (Human immunodeficiency virus type 1 group M subtype B, UniProt P04585); test: Inhibition of HIV-1 reverse transcriptase (RT), [3H]-thymidine-5'-triphosphate incorporation; assay type: biochemical; conditions: purified recombinant HIV-1 RT; HIV-LTR in vitro transcript template, 18 mer primer
T1 construct: purified RT from HIV-1; made in house; host or cells: E. coli
Text: Inhibition of reverse transcriptase (RT) by 9b-phenyl-2,3-dihydrothiazolo[2,3-a]isoindol-5(9bH)-one.
The screening test system contains the purified RT from HIV-1, which was expressed by gene-technological methods in E. coli, as well as the components of the initiation complex, such as the in vitro transcripts of the HIV-LTR's with the neighbouring primer binding site as template and an 18 mer oligo-nucleotide as primer complementary to the primer binding site. The [^-3 H]-thymidine-5'-triphosphate incorporation was measured by counting in a β-counter.

[2] = Hirsch, J. Infec. Dis. 157, 427-431 (1988); cited from earlier work

Row | Compound | IC50 [1] [µM] | therapeutic range [2]
1 | O=C1c2ccccc2C2(c3cccc(C(F)(F)F)c3)SCCN12 (stereo not shown) [Example 3.15] | 1 | –
2 | O=C1c2ccccc2C2(c3ccccc3)N1CCS2(=O)=O (stereo not shown) [Example 4, 9b-Phenyl-2,3-dihydrothiazolo[2,3-a]isoindol-5(9bH)-one 1,1-dioxide] | 1.4 | –
3 | O=C1c2ccccc2C2(c3ccccc3)SCCN12 (stereo not shown) [Example 3.30, 9b-phenyl-2,3-dihydrothiazolo[2,3-a]isoindol-5(9bH)-one] | 0.7 | –
4 | Cc1cn([C@H]2C[C@H](N=[N+]=[N-])[C@@H](CO[P@](=O)(O)O[P@](=O)(O)OP(=O)(O)O)O2)c(=O)[nH]c1=O [AZT-TP, 3'-azido-3'-desoxythymidine-5'-triphosphate, reference compound] | 6 | –
5 | Cc1cn([C@H]2C[C@H](N=[N+]=[N-])[C@@H](CO)O2)c(=O)[nH]c1=O [AZT, 3'-azido-3'-desoxythymidine] | – | very narrow therapeutic range
6 | Cc1cccc(C23SCCN2C(=O)c2ccccc23)c1C (stereo not shown) [Example 3.8] | 0.8 | –
7 | Cc1ccc(C)c(C23SCCN2C(=O)c2ccccc23)c1 (stereo not shown) [Example 3.18] | 0.95 | –
8 | O=C1c2ccccc2C2(c3ccc(Cl)cc3)SCCN12 (stereo not shown) [Example 3.2] | 4 | –
9 | COc1cccc(C23SCCN2C(=O)c2ccccc23)c1 (stereo not shown) [Example 3.12] | 1.1 | –
10 | O=C1c2ccccc2C2(c3ccc(Cl)c(Cl)c3)SCCN12 (stereo not shown) [Example 3.4] | 4 | –
